How the values were obtained:
[1] = tested on: ABUTH; assay: Post-emergence herbicidal action against ABUTH; type: in vivo, Abutylon threophrasti; conditions: 80 g/ha, visual assessment about 3 weeks after treatment vs untreated controls
In short: (§1)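 Weeds and crops grown in sandy loam in the greenhouse, treated post-emergence at the one-leaf stage (2–3 weeks after sowing). WP or EC formulations sprayed as aqueous suspension/emulsion at 600–800 l/ha water with 0.2% wetting agent. Visual % activity scored after about 3 weeks versus untreated controls (100% = dead, 0% = like control).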

[2] = tested on: DIGSA; assay: Pre-emergence herbicidal action against DIGSA; type: in vivo, Digitaria sanguinalis; conditions: 320 g/ha, scored visually after 3 weeks vs untreated controls
In short: (§2)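 Pre-emergence soil-surface application: WP/EC in water, 600 to 800 L/ha, + 0.2% wetting agent, onto soil-covered seeds in sandy loam. Greenhouse, 3 wk. Visual % activity vs untreated (100% = dead).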

[3] = tested on: AMARE; assay: Pre-emergence herbicidal action against AMARE; type: in vivo, Amaranthus retroflexus; conditions: 320 g/ha
In short: as §2

[4] = tested on: VERPE; assay: Post-emergence herbicidal action against VERPE; type: in vivo, Veronica persica; conditions: 80 g/ha, visual assessment about 3 weeks after treatment vs untreated controls
Description: (§3) Seeds of monocotyledonous and dicotyledonous weed and crop plants are laid out in sandy loam soil in wood-fiber pots, covered with soil and cultivated in a greenhouse under good growth conditions. 2 to 3 weeks after sowing, the test plants are treated at the one-leaf stage. The compounds of the invention, formulated in the form of wettable powders (WP) or as emulsion concentrates (EC), are then sprayed onto the green parts of the plants as aqueous suspension or emulsion at a water application rate equating to 600 to 800 l/ha with addition of 0.2% wetting agent. After the test plants have been left to stand in the greenhouse under optimal growth conditions for about 3 weeks, the action of the preparations is assessed visually in comparison to untreated controls (herbicidal action in percent (%): 100% activity=the plants have died, 0% activity=like control plants).

[5] = tested on: VIOTR; assay: Pre-emergence herbicidal action against VIOTR; type: in vivo, Viola tricolor; conditions: 320 g/ha
In short: as §2

[6] = tested on: AVEFA; assay: Post-emergence herbicidal action against AVEFA; type: in vivo, Avena fatua; conditions: 80 g/ha, visual assessment after about 3 weeks
In short: as §1

[7] = tested on: AVEFA; assay: Pre-emergence herbicidal action against AVEFA; type: in vivo, Avena fatua; conditions: 320 g/ha, scored visually after 3 weeks vs untreated controls
In short: as §2

[8] = tested on: MATIN; assay: Pre-emergence herbicidal action against MATIN; type: in vivo; conditions: 320 g/ha
In short: as §2

[9] = tested on: ECHCG; assay: Post-emergence herbicidal action against ECHCG; type: in vivo, Echinochloa crus-galli; conditions: 80 g/ha, visual assessment about 3 weeks after treatment vs untreated controls
In short: as §1

[10] = tested on: LOLRI; assay: Post-emergence herbicidal action against LOLRI; type: in vivo, Lolium rigidum; conditions: 80 g/ha, visual assessment about 3 weeks after treatment vs untreated controls
In short: as §1

[11] = tested on: ALOMY; assay: Pre-emergence herbicidal action against ALOMY; type: in vivo, Alopecurus myosuroides; conditions: 320 g/ha, scored visually after 3 weeks vs untreated controls
In short: as §2

[12] = tested on: ALOMY; assay: Post-emergence herbicidal action against ALOMY; type: in vivo, Alopecurus myosuroides; conditions: 80 g/ha, visual assessment after about 3 weeks
In short: as §1

[13] = tested on: ECHCG; assay: Pre-emergence herbicidal action against ECHCG; type: in vivo, Echinochloa crus-galli; conditions: 320 g/ha, scored visually after 3 weeks vs untreated controls
In short: as §2

[14] = tested on: SETVI; assay: Pre-emergence herbicidal action against SETVI; type: in vivo, Setaria viridis; conditions: 320 g/ha, scored visually after 3 weeks vs untreated controls
In short: as §2

[15] = tested on: LOLRI; assay: Pre-emergence herbicidal action against LOLRI (Table 8, titled post-emergence at 320 g/ha); type: in vivo, Lolium rigidum; conditions: table stands in the pre-emergence section
In short: as §2

[16] = tested on: DIGSA; assay: Post-emergence herbicidal action against DIGSA; type: in vivo, Digitaria sanguinalis; conditions: 80 g/ha, visual assessment about 3 weeks after treatment vs untreated controls
In short: as §1

[17] = tested on: AMARE; assay: Post-emergence herbicidal action against AMARE; type: in vivo, Amaranthus retroflexus; conditions: 80 g/ha, visual assessment about 3 weeks after treatment vs untreated controls
Description: as §3

[18] = tested on: SETVI; assay: Post-emergence herbicidal action against SETVI; type: in vivo, Setaria viridis; conditions: 80 g/ha, visual assessment about 3 weeks after treatment vs untreated controls
In short: as §1

[19] = tested on: ABUTH; assay: Pre-emergence herbicidal action against ABUTH; type: in vivo, Abutylon threophrasti; conditions: 320 g/ha
In short: as §2

[20] = tested on: POLCO; assay: Pre-emergence herbicidal action against POLCO; type: in vivo, Polygonum convolvulus; conditions: 320 g/ha
In short: as §2

[21] = tested on: VERPE; assay: Pre-emergence herbicidal action against VERPE; type: in vivo, Veronica persica; conditions: 320 g/ha
In short: as §2

[22] = tested on: HORMU; assay: Post-emergence herbicidal action against HORMU; type: in vivo, Hordeum murinum; conditions: 80 g/ha, visual assessment about 3 weeks after treatment vs untreated controls
In short: as §1

Compound | Post-emergence action against ABUTH in % [1] [%] | Pre-emergence action against DIGSA in % [2] [%] | Pre-emergence action against AMARE in % [3] [%] | Post-emergence action against VERPE in % [4] [%] | Pre-emergence action against VIOTR in % [5] [%] | Post-emergence action against AVEFA in % [6] [%] | Pre-emergence action against AVEFA in % [7] [%] | Pre-emergence action against MATIN in % [8] [%] | Post-emergence action against ECHCG in % [9] [%] | Post-emergence action against LOLRI in % [10] [%] | Pre-emergence action against ALOMY in % [11] [%] | Post-emergence action against ALOMY in % [12] [%] | Pre-emergence action against ECHCG in % [13] [%] | Pre-emergence action against SETVI in % [14] [%] | Pre-emergence herbicidal action against LOLRI in % [15] [%] | Post-emergence action against DIGSA in % [16] [%] | Post-emergence action against SETVI in % [18] [%] | Pre-emergence action against ABUTH in % [19] [%] | Pre-emergence action against POLCO in % [20] [%] | Pre-emergence action against VERPE in % [21] [%] | also measured
CC#Cc1cc(C)c(C2=C(O)C3(CCC(COCC)C3)NC2=O)c(OC)c1 (stereo not shown) [Example I-30] | 80 | 100 | 100 | 80 | 100 | 80 | 90 | 90 | 100 | 100 | 100 | 90 | 100 | 100 | 100 | 100 |  |  |  |  | 
C=CCOCC1CCC2(C1)NC(=O)C(c1c(C)cc(C#CC)cc1Cl)=C2O (stereo not shown) [Example I-44] |  | 100 | 100 |  | 100 | 80 | 90 | 80 | 100 | 80 | 100 | 100 | 90 | 100 | 100 | 100 | 100 | 80 | 100 | 80 | Post-emergence action against AMARE in % [17]: 80%
CC#Cc1cc(C)c(C2=C(O)C3(CCC(COCCC)C3)NC2=O)c(Cl)c1 (stereo not shown) [Example I-71] |  | 100 |  | 80 | 100 | 80 | 80 | 90 | 90 | 90 | 100 | 90 | 100 | 100 | 100 | 90 | 100 |  |  | 90 | 
CC#Cc1cc(Cl)c(C2=C(OC(=O)OCC)C3(CCC(COCC)C3)NC2=O)c(CC)c1 (stereo not shown) [Example P-21] |  |  |  | 80 |  | 100 |  |  | 100 | 100 |  | 100 |  |  |  | 100 | 100 |  |  |  | Post-emergence action against HORMU in % [22]: 100%
CC#Cc1cc(C)c(C2=C(OC(=O)OCC)C3(CCC(COCC)C3)NC2=O)c(Cl)c1 (stereo not shown) [Example P-28] |  | 100 | 100 | 80 | 100 | 90 | 100 | 90 | 100 | 100 | 100 | 100 | 100 | 100 | 100 | 100 | 100 | 90 | 80 | 100 | 
CC#Cc1cc(C)c(C2=C(OC(=O)C(C)C)C3(CCC(COCC)C3)NC2=O)c(Cl)c1 (stereo not shown) [Example P-29] |  | 100 | 100 | 80 | 100 | 90 | 100 | 90 | 100 | 100 | 100 | 100 | 100 | 100 | 100 | 100 | 100 | 80 | 90 | 100 | 
CC#Cc1cc(C)c(C2=C(OC(=O)OCC)C3(CCC(COC)C3)NC2=O)c(Br)c1 (stereo not shown) [Example P-31] |  | 100 | 100 |  | 100 | 100 | 100 |  | 100 | 100 | 100 | 90 | 100 | 100 | 100 | 100 | 100 | 90 | 90 | 90 | Post-emergence action against AMARE in % [17]: 80%
CC#Cc1cc(C)c(C2=C(OC(=O)OCC)C3(CCC(COCC)C3)NC2=O)c(F)c1 (stereo not shown) [Example P-54] | 80 | 100 | 100 | 80 | 100 | 100 | 90 |  | 100 | 100 | 100 | 100 | 100 | 100 | 100 | 100 |  |  | 80 | 80 | 
CC#Cc1cc(C)c(C2=C(OC(=O)C(C)C)C3(CCC(COC)C3)NC2=O)c(F)c1 (stereo not shown) [Example P-58] | 80 | 100 | 90 |  | 100 | 90 | 90 |  | 100 | 100 | 100 | 100 | 100 | 100 | 100 | 100 |  | 80 |  |  | Post-emergence action against AMARE in % [17]: 80%

Reference: patent US20220386606A1, “SPECIFICALLY SUBSTITUTED 3-PHENYL-5-SPIROCYCLOPENTYL-3-PYRROLIN-2-ONES AND THEIR USE AS HERBICIDES” (Bayer Aktiengesellschaft, priority 2019, published 2022)
